# Measured values published in US20220403001A1, “PDE5 DERIVED REGULATORY CONSTRUCTS AND METHODS OF USE IN IMMUNOTHERAPY” (Obsidian Therapeutics, Inc., priority 2018, published 2022).
# Where “and” joins values, the source holds several entries; their conditions need not be identical. Identical values can stand only once.
# What was measured:
# hPDE5 mutants [1] = target: T1, hPDE5 mutants (Homo sapiens, UniProt O76074); assay: GFP MFI by FACS in HCT116 cells transduced with hPDE5 constructs; assay type: cell-based
# Procedure: (§1) Desirable qualities of a DD include, low expression of the SRE in the absence of ligand and ligand dependent stabilization of the SRE. Constructs were generated using DDs linked to GFP using an SG linker. […] The mean fluorescence intensity (MFI) of GFP was analyzed by FACS. […] Destabilizing mutation coefficient less than 1 are desirable.
# (§2) Mean fluorescence intensity (MFI) was measured by FACS. […] Destabilizing mutation coefficient ratios less than 1 are desirable.
# (§3) Mean fluorescence intensity (MFI) was measured by FACS. […] Destabilizing mutation co-efficient ratios less than 1 are desirable.
# (§4) Mean fluorescence intensity (MFI) was measured by FACS. […] Destabilizing mutation coefficient less than 1 are desirable.
# as §4
# (§5) Mean fluorescence intensity (MFI) of GFP was measured by FACS.
# (§6) Mean fluorescence intensity (MFI) was measured by FACS.
# (§7) The media containing the ligand was removed and fresh media without the ligand was added.
# (§8) The properties of the DDs were analyzed in the presence and absence of ligands via FACS as previously described.
# (§9) GFP fluorescence was measured by FACS.
# (§10) The properties of the DDs were analyzed via FACS both in the presence and absence of ligands.
# as §9
# hPDE5 mutants [2] = assay: as above; assay type: cell-based, human
# Procedure: as §1, §2, §3, §4, §4, §5, §6, §7, §8, §9, §10, §9
# hPDE5 mutants [3] = target: T1, hPDE5 mutants; assay: GFP FACS analysis of hPDE5 mutant library clones in NIH3T3 cell pools; conditions: for Stabilization ratio: GFP intensity 10 μM vardenafil vs DMSO
# Procedure: (§11) These constructs were packaged into lentivirus, transduced into NIH3T3 cells and select stable cell pools were derived as described below. […] Lentiviral stocks were used for transduction of NIH3T3 cells and subsequent cell pool selection. The day before transduction, NIH3T3 cells (1.8×10^6) were seeded in a T-25 flask and allowed to reach 60-70% confluency (˜1 day). The growth medium in the T-25 flask was then replaced with 1 mL virus (quickly thawed in a 37° C. water bath) and 5 μg/mL polybrene. […] Transduction medium was removed the following day and replaced with 5 mL fresh medium. At 48 hr after transduction, the medium was replaced with media containing 1 μg/mL puromycin. This puromycin medium was replaced every 3-4 days until cell pools were established (˜2 weeks).
# (§12) The mean fluorescence intensity (MFI) of GFP at 100 μM concentration treatment was set as 100% hPDE5 stabilization effect (HPE), while DMSO treatment was set as 0% effect (ZPE) of hPDE5 stabilization. The effect of the compound on hPDE5 stabilization was calculated based on the following formula: % PDE5 stabilization effect=(MFI-ZPE)/(HPE-ZPE)×100.
# (§13) Plots of the % effect versus concentration were generated with Graphpad Prism 5 and EC50 values were calculated using a four-parameter nonlinear regression model.
# (§14) Select PDE5 clones from both experiment 1 and experiment 2 were directly compared. […] The stabilization ratio was calculated as the fold change in GFP intensity in ligand treated samples compared to treatment with DMSO (i.e. in the absence of ligand) with the same construct.
# hPDE5 mutants [4] = assay: as above
# Procedure: as §11, §12, §13, §14
# hPDE5 mutants [5] = assay: GFP expression (MFI) by FACS in HEK293 cells expressing hPDE5 constructs
# Procedure: The mutant library was ligated in frame with an AcGFP reporter at C-terminus and cloned into pLVX-IRES—Puro vectors. […] DNA was extracted from the cell pool, cloned into vectors, and transformed into E. coli. Individual clones were sequenced and cloned in frame with a linker [sequence] […] HEK293 cells were transduced with individual clones and selected with puromycin.
# The GFP expression in cells expressing hPDE5 constructs was measured by FACS.
# The stability of hPDE5 mutants was measured using FACS and mean fluorescence intensity (MFI) of GFP was calculated.
# [6] = GFP intensity ligand treated vs DMSO, direct comparison of clones
# [7] = Sildenafil 0.0005 μM, 48 h, HEK293
# [8] = Sildenafil 3.33 μM, 48 h, HEK293
# [9] = Sildenafil 10 μM, 48 h, HEK293 (dose titration)
# [10] = Sildenafil 10 μM, 48 h, HEK293 (time course)
# [11] = Vardenafil 0.0005 μM, 48 h, HEK293
# [12] = Vardenafil 3.33 μM, 48 h, HEK293
# [13] = Vardenafil (10 μM), 48 h, Table 25, cell line not given in table
substance,measurement,setting,value
"OT-001075: hPDE5 wildtype construct, catalytic domain linked to AcGFP, control",Sildenafil Stabilization ratio,"hPDE5 mutants [1]; 10 μM, 48 h, HCT-116",1.25
same,Vardenafil Stabilization ratio,"hPDE5 mutants [1]; 10 μM, 48 h, HCT-116",1.15
same,MFI Sildenafil,"hPDE5 mutants [1]; GFP, 10 μM Sildenafil 48 h, HCT-116",53736
same,MFI Vardenafil,"hPDE5 mutants [1]; GFP, 10 μM Vardenafil 48 h, HCT-116",49344
same,Vardenafil Stabilization ratio,"hPDE5 mutants [1]; hotspot constructs, 1 μM Vardenafil",1.83
same,Sildenafil Stabilization ratio,"hPDE5 mutants [1]; hotspot constructs, 10 μM Sildenafil",0.22
same,"GFP by FACS, Sildenafil 10 μM","hPDE5 mutants [1]; hotspot constructs, HCT116",219
same,"GFP by FACS, Vardenafil 1 μM","hPDE5 mutants [1]; hotspot constructs, HCT116",294
same,MFI DMSO,"hPDE5 mutants [2]; GFP, DMSO 48 h, HCT-116",42973
same,"GFP by FACS, Sildenafil 0 μM (DMSO)","hPDE5 mutants [2]; hotspot constructs, HCT116, DMSO control of Sildenafil",989
same,"GFP by FACS, Vardenafil 0 μM (DMSO)","hPDE5 mutants [2]; hotspot constructs, HCT116, DMSO control of Vardenafil",161
same,Stabilization ratio,hPDE5 mutants [3]; experiment 1,1.6 and 1.5 and 1.4
same,Stabilization ratio,hPDE5 mutants [3]; experiment 2,1.5
same,Stabilization ratio Sildenafil,hPDE5 mutants [3]; [6],1.05
same,Stabilization ratio Tadalafil,hPDE5 mutants [3]; [6],1.50
same,Stabilization ratio Vardenafil,hPDE5 mutants [3]; [6],1.78
same,Mean fluorescence intensity (MFI) 10 μM VDF,"hPDE5 mutants [3]; GFP, cell pools, 10 μM vardenafil 24 hr, experiment 2",45616 and 43134
same,Mean fluorescence intensity (MFI) DMSO,"hPDE5 mutants [3]; GFP, cell pools, no ligand (DMSO), experiment 2",30404 and 29006
same,Fluorescence intensity Sildenafil,"hPDE5 mutants [3]; median GFP fluorescence by FACS, 10 μM Sildenafil, direct comparison of clones",7082
same,Fluorescence intensity Tadalafil,"hPDE5 mutants [3]; median GFP fluorescence by FACS, 10 μM Tadalafil, direct comparison of clones",10100
same,Fluorescence intensity Vardenafil,"hPDE5 mutants [3]; median GFP fluorescence by FACS, 10 μM Vardenafil, direct comparison of clones",12000
same,Fluorescence intensity DMSO,"hPDE5 mutants [3]; median GFP fluorescence by FACS, vehicle DMSO (no ligand), direct comparison of clones",6732
same,GFP FACS analysis (MFI),"hPDE5 mutants [4]; DMSO (no ligand), SDF series, experiment 1",3140
same,GFP FACS analysis (MFI),"hPDE5 mutants [4]; DMSO (no ligand), TDF series, experiment 1",9511
same,GFP FACS analysis (MFI),"hPDE5 mutants [4]; DMSO (no ligand), VDF series, experiment 1",7545
same,GFP FACS analysis (MFI),"hPDE5 mutants [4]; SDF 1.235 μM, experiment 1",5740
same,Percent stabilization effect,"hPDE5 mutants [4]; SDF 1.235 μM, experiment 1",66.0%
same,GFP FACS analysis (MFI),"hPDE5 mutants [4]; SDF 3.704 μM, experiment 1",6480
same,Percent stabilization effect,"hPDE5 mutants [4]; SDF 3.704 μM, experiment 1",84.7%
same,GFP FACS analysis (MFI),"hPDE5 mutants [4]; SDF 11.111 μM, experiment 1",6848
same,Percent stabilization effect,"hPDE5 mutants [4]; SDF 11.111 μM, experiment 1",94.1%
same,Percent stabilization effect,"hPDE5 mutants [4]; SDF 11.111 μM, experiment 2",49.7% and 88.2%
same,GFP FACS analysis (MFI),"hPDE5 mutants [4]; SDF 33.333 μM, experiment 1",7025
same,Percent stabilization effect,"hPDE5 mutants [4]; SDF 33.333 μM, experiment 1",98.6%
same,Percent stabilization effect,"hPDE5 mutants [4]; SDF 33.333 μM, experiment 2",79.3% and 96.0%
same,Percent stabilization effect,"hPDE5 mutants [4]; SDF 100 μM (set as 100%), experiment 1",100.0%
same,Percent stabilization effect,"hPDE5 mutants [4]; SDF 100 μM (set as 100%), experiment 2",100.0%
same,GFP FACS analysis (MFI),"hPDE5 mutants [4]; SDF 100 μM, experiment 1",7082
same,GFP FACS analysis (MFI),"hPDE5 mutants [4]; SDF 100 μM, experiment 2",39638 and 65696
same,GFP FACS analysis (MFI),"hPDE5 mutants [4]; TDF 1.235 μM, experiment 1",6211
same,Percent stabilization effect,"hPDE5 mutants [4]; TDF 1.235 μM, experiment 1",−560.3%
same,GFP FACS analysis (MFI),"hPDE5 mutants [4]; TDF 3.704 μM, experiment 1",7039
same,Percent stabilization effect,"hPDE5 mutants [4]; TDF 3.704 μM, experiment 1",−419.7%
same,GFP FACS analysis (MFI),"hPDE5 mutants [4]; TDF 11.111 μM, experiment 1",7388
same,Percent stabilization effect,"hPDE5 mutants [4]; TDF 11.111 μM, experiment 1",−360.4%
same,GFP FACS analysis (MFI),"hPDE5 mutants [4]; TDF 11.111 μM, experiment 2",89646 and 143351
same,Percent stabilization effect,"hPDE5 mutants [4]; TDF 11.111 μM, experiment 2",101.2% and 136.4%
same,GFP FACS analysis (MFI),"hPDE5 mutants [4]; TDF 33.333 μM, experiment 1",7688
same,Percent stabilization effect,"hPDE5 mutants [4]; TDF 33.333 μM, experiment 1",−309.5%
same,GFP FACS analysis (MFI),"hPDE5 mutants [4]; TDF 33.333 μM, experiment 2",97813 and 136420
same,Percent stabilization effect,"hPDE5 mutants [4]; TDF 33.333 μM, experiment 2",110.9% and 123.3%
same,Percent stabilization effect,"hPDE5 mutants [4]; TDF 100 μM (set as 100%), experiment 1",100.0%
same,Percent stabilization effect,"hPDE5 mutants [4]; TDF 100 μM (set as 100%), experiment 2",100.0%
same,GFP FACS analysis (MFI),"hPDE5 mutants [4]; TDF 100 μM, experiment 1",10100
same,GFP FACS analysis (MFI),"hPDE5 mutants [4]; TDF 100 μM, experiment 2",88657 and 124011
same,GFP FACS analysis (MFI),"hPDE5 mutants [4]; VDF 1.235 μM, experiment 1",7393
same,Percent stabilization effect,"hPDE5 mutants [4]; VDF 1.235 μM, experiment 1",−3.4%
same,GFP FACS analysis (MFI),"hPDE5 mutants [4]; VDF 1.235 μM, experiment 2",32753 and 47543
same,Percent stabilization effect,"hPDE5 mutants [4]; VDF 1.235 μM, experiment 2",46.3% and 46.8%
same,GFP FACS analysis (MFI),"hPDE5 mutants [4]; VDF 3.704 μM, experiment 1",7592
same,Percent stabilization effect,"hPDE5 mutants [4]; VDF 3.704 μM, experiment 1",1.1%
same,GFP FACS analysis (MFI),"hPDE5 mutants [4]; VDF 3.704 μM, experiment 2",36347 and 49859
same,Percent stabilization effect,"hPDE5 mutants [4]; VDF 3.704 μM, experiment 2",52.0% and 52.6%
same,GFP FACS analysis (MFI),"hPDE5 mutants [4]; VDF 11.111 μM, experiment 1",7964
same,Percent stabilization effect,"hPDE5 mutants [4]; VDF 11.111 μM, experiment 1",9.4%
same,GFP FACS analysis (MFI),"hPDE5 mutants [4]; VDF 11.111 μM, experiment 2",39279 and 50082
same,Percent stabilization effect,"hPDE5 mutants [4]; VDF 11.111 μM, experiment 2",56.6% and 53.2%
same,GFP FACS analysis (MFI),"hPDE5 mutants [4]; VDF 33.333 μM, experiment 1",8854
same,Percent stabilization effect,"hPDE5 mutants [4]; VDF 33.333 μM, experiment 1",29.4%
same,GFP FACS analysis (MFI),"hPDE5 mutants [4]; VDF 33.333 μM, experiment 2",44931 and 53578
same,Percent stabilization effect,"hPDE5 mutants [4]; VDF 33.333 μM, experiment 2",65.5% and 62.0%
same,Percent stabilization effect,"hPDE5 mutants [4]; VDF 100 μM (set as 100%), experiment 1",100.0%
same,Percent stabilization effect,"hPDE5 mutants [4]; VDF 100 μM (set as 100%), experiment 2",100.0%
same,GFP FACS analysis (MFI),"hPDE5 mutants [4]; VDF 100 μM, experiment 1",12000
same,GFP FACS analysis (MFI),"hPDE5 mutants [4]; VDF 100 μM, experiment 2",66821 and 68646
same,Fold increase in MFI,"hPDE5 mutants [4]; after treatment with sildenafil or vardenafil, NIH3T3",~1.5 fold
OT-001083: hPDE5-Y728L AcGFP construct,MFI,hPDE5 mutants [5]; [7],4422
same,Stabilization ratio,hPDE5 mutants [5]; [7],1.01
same,MFI,hPDE5 mutants [5]; [8],17960
same,Stabilization ratio,hPDE5 mutants [5]; [8],4.09
same,MFI,"hPDE5 mutants [5]; Sildenafil 10 μM, 2 h, HEK293",7290
same,Stabilization ratio,"hPDE5 mutants [5]; Sildenafil 10 μM, 2 h, HEK293",1.37
same,MFI,"hPDE5 mutants [5]; Sildenafil 10 μM, 4 h, HEK293",8675
same,Stabilization ratio,"hPDE5 mutants [5]; Sildenafil 10 μM, 4 h, HEK293",1.64
same,MFI,"hPDE5 mutants [5]; Sildenafil 10 μM, 6 h, HEK293",10929
same,Stabilization ratio,"hPDE5 mutants [5]; Sildenafil 10 μM, 6 h, HEK293",2.06
same,MFI,"hPDE5 mutants [5]; Sildenafil 10 μM, 16 h, HEK293",19034
same,Stabilization ratio,"hPDE5 mutants [5]; Sildenafil 10 μM, 16 h, HEK293",3.59
same,MFI,"hPDE5 mutants [5]; Sildenafil 10 μM, 24 h, HEK293",27246
same,Stabilization ratio,"hPDE5 mutants [5]; Sildenafil 10 μM, 24 h, HEK293",5.14
same,MFI,hPDE5 mutants [5]; [9],32480
same,Stabilization ratio,hPDE5 mutants [5]; [9],7.40
same,MFI,hPDE5 mutants [5]; [10],34796
same,Stabilization ratio,hPDE5 mutants [5]; [10],6.56
same,MFI,hPDE5 mutants [5]; [11],7894
same,Stabilization ratio,hPDE5 mutants [5]; [11],0.99
same,MFI,hPDE5 mutants [5]; [12],134306
same,Stabilization ratio,hPDE5 mutants [5]; [12],16.85
same,MFI,"hPDE5 mutants [5]; Vardenafil 10 μM, 48 h, HEK293",166236
same,Stabilization ratio,"hPDE5 mutants [5]; Vardenafil 10 μM, 48 h, HEK293",20.86
same,Stabilization ratio,"hPDE5 mutants [5]; Vardenafil (1 μM), 48 h, Table 25, cell line not given in table",13.26
same,MFI,"hPDE5 mutants [5]; Vardenafil (1 μM), 48 h, Table 25, cell line not given in table (HEK293, HCT-116, SKOV-3)",68816
same,MFI,hPDE5 mutants [5]; [13],123150
same,Stabilization ratio,hPDE5 mutants [5]; [13],23.72
